Results published in patent publication US9255093B2, “Polycyclic HERG activators” (NOVARTIS AG, priority 2014, dated 2016).
Marks after values point to notes of the source that are not given here.

target: hERG (human ether-a-go-go-related gene) potassium channel (Homo sapiens, UniProt Q12809); assay: QPatch automated patch-clamp hERG activator 4-concentration EC50 assay; settings: increase of hERG tail current amplitude at 7 second (TL7); 3.3 uM (footnote *); hERG stably expressed in CHO cells
Sequence (Q12809 whole entry): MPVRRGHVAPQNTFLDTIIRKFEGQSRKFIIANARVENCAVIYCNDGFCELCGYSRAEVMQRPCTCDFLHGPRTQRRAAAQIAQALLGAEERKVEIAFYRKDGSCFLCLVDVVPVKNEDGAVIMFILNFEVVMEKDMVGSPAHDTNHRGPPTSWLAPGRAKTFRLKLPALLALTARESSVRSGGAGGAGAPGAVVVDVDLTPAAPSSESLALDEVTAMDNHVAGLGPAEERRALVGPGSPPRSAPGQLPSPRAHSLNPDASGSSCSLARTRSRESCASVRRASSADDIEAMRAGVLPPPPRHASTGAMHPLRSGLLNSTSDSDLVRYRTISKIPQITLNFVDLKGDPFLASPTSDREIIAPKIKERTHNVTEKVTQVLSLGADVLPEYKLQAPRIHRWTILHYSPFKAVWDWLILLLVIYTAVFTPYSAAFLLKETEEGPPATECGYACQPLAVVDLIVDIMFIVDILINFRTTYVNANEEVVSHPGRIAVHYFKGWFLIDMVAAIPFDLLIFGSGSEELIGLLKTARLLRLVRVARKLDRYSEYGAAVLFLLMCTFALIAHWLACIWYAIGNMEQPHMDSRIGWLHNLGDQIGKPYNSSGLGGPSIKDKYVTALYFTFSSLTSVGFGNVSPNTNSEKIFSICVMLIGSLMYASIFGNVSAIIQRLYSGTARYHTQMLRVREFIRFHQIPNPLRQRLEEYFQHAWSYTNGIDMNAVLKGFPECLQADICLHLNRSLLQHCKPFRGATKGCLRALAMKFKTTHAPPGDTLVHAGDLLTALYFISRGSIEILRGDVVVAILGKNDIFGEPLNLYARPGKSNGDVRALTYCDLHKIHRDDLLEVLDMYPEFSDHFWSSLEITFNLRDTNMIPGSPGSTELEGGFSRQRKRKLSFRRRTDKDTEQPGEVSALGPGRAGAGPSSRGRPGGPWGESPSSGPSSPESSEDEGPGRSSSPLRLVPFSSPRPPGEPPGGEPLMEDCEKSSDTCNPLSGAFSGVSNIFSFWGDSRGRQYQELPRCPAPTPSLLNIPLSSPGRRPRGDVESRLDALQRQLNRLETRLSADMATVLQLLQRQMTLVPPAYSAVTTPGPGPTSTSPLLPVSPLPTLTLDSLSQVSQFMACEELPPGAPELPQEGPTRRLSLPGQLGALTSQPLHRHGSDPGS
Excerpt: A patch-clamp assay on the QPatch© automated patch clamp system was employed to assesses whether compounds functionally enhance the cardiac delayed rectifier hERG (human ether-a-go-go-related gene) potassium channel. The assay measures electric the current passing through hERG channels that are heterologously expressed in a stable Chinese hamster ovary (CHO) cell line. Channels are opened by a hERG-specific voltage protocol and the compound effect is directly characterized by the activation of the hERG current. EC50 values are obtained from fitting 4-concentration dose response curves (1.1, 3.3, 10 & 30 uM) in triplicates at 4 different sections of the voltage protocol (steady state current amplitude at +10 mV, at +30 mV, peak tail current amplitude and tail current amplitude at 7 second).

Row | SMILES | % change@TL7 (*@3.3 uM)
1 | FC(F)(F)Oc1ccc(NCc2ccc3c(-c4nn[nH]n4)coc3c2)cc1Br [Example 233] | 202* %
2 | FC(F)(F)c1ccc(NCc2ccc3cc(-c4nn[nH]n4)oc3c2)cc1Br [Example 3] | 121* %
3 | CCOc1c(F)cc(NCc2ccc3cc(-c4nn[nH]n4)oc3c2)cc1Br [Example 2] | 126* %

same assay, conditions: increase of hERG tail current amplitude at 7 second (TL7); 10 uM; hERG stably expressed in CHO cells

Row | SMILES | % change@TL7@10 uM [%]
4 | CCCc1ccc(NCc2cc3oc(-c4nnn[nH]4)cc3cc2F)cc1F [Example 190] | 167
5 | O=C(O)c1cc2ccc(CNc3ccc(OCC(F)(F)F)c(C(F)(F)F)c3)cc2o1 [Example 118] | 27
6 | FC(F)(F)COc1ccc(NCc2cc3oc(-c4nnn[nH]4)cc3cc2Br)cc1C(F)(F)F [Example 164] | 308
7 | Fc1cc2cc(-c3nnn[nH]3)oc2cc1CNc1ccc(OCC(F)(F)F)c(Cl)c1 [Example 205] | 222
8 | O=C(O)c1cc2ccc(CNc3ccc4c(c3)OC(F)(F)O4)cc2o1 [Example 89] | 270
9 | CCCc1ccc(NCc2ccc3c(C(F)(F)F)c(C(=O)O)oc3c2)cc1C(F)(F)F [Example 111] | 65
10 | Cc1nc2cc(NCc3ccc4cc(C(=O)O)oc4c3)ccc2s1 [Example 114] | 45
11 | O=C(O)c1cc2ccc(CNc3cc(Cl)c(Cl)c(Cl)c3)cc2o1 [Example 86] | 381
12 | CCc1ccc(NCc2ccc3cc(C(=O)O)oc3c2)cc1C(F)(F)F [Example 100] | 156
13 | CC(C)Oc1ccc(NCc2cc3oc(-c4nnn[nH]4)cc3cc2F)cc1C(F)(F)F [Example 163] | 250
14 | CCOc1ccc(NCc2cc3oc(-c4nnn[nH]4)cc3cc2Br)cc1C(F)(F)F [Example 178] | 262
15 | Clc1cc(NNCc2ccc3cc(-c4nn[nH]n4)oc3c2)cc(Cl)c1Cl [Example 45] | 145
16 | CCCc1ccc(NCc2ccc3c(C)c(-c4nnn[nH]4)oc3c2)cc1C(F)(F)F [Example 51] | 99
17 | O=C(O)c1cc2ccc(CNc3ccc4c(c3)OC(F)(F)C(F)(F)O4)cc2o1 [Example 94] | 194
18 | COc1ccc(NCc2ccc3cc(-c4nn[nH]n4)oc3c2)cc1Br [Example 174] | 273
19 | CCOc1c(Cl)cc(NCc2ccc3c(C(F)(F)F)c(-c4nnn[nH]4)oc3c2)cc1Cl [Example 49] | 106
20 | O=C(O)c1cc2ccc(CNc3ccc(OC(F)(F)F)c(OC(F)(F)F)c3)cc2o1 [Example 104] | 111
21 | CC(C)Oc1ccc(NCc2cc3oc(-c4nnn[nH]4)cc3cc2Cl)cc1C(F)(F)F [Example 18] | 409
22 | CCCc1cc(NCc2ccc3oc(C(=O)O)cc3c2)ccc1C(F)(F)F [Example 125] | 138
23 | CCCc1ccc(NCc2ccc3cc(-c4nnn[nH]4)oc3c2)cc1Br [Example 42] | 159
24 | N#CCOc1ccc(NCc2cc3oc(-c4nnn[nH]4)cc3cc2Br)cc1C(F)(F)F [Example 155] | 370
25 | Fc1cc2cc(-c3nnn[nH]3)oc2cc1CNc1ccc(Cl)c(Cl)c1 [Example 208] | 285
26 | CCc1ccc(NCc2ccc3oc(C(=O)O)cc3c2)cc1C(F)(F)F [Example 124] | 167
27 | CCCc1ccc(NCc2cc3oc(-c4nnn[nH]4)cc3cc2Cl)cc1Br [Example 34] | 191
28 | CCCc1c(C)cc(NCc2ccc3oc(-c4nnn[nH]4)cc3c2)cc1Cl [Example 69] | 221

Row | SMILES | % change@TL7@10 uM [%]
29 | FC(F)(F)Oc1cc(Cl)cc(NCc2cc3oc(-c4nnn[nH]4)cc3cc2Cl)c1 [Example 212] | 116
30 | CC(C)COc1ccc(NCc2ccc3cc(-c4nn[nH]n4)oc3c2)cc1Br [Example 216] | 88
31 | FC(F)Oc1ccc(NCc2ccc3cc(-c4nn[nH]n4)oc3c2)cc1Cl [Example 17] | 477
32 | CCCc1ccc(NC(C)c2ccc3oc(-c4nnn[nH]4)cc3c2)cc1Cl (stereo not drawn) [Example 84] | 29
33 | FC(F)(F)c1ccc(NCc2cc3cc(-c4nnn[nH]4)oc3cc2Cl)cc1Cl [Example 138] | 196
34 | Cc1c(-c2nnn[nH]2)oc2ccc(CNc3ccc(SC(F)(F)F)c(Cl)c3)cc12 [Example 70] | 200
35 | FC(F)(F)COc1ccc(NCc2ccc3cc(-c4nn[nH]n4)oc3c2)cc1Cl [Example 44] | 146
36 | O=C(O)c1oc2cc(CNc3ccc(OC(F)(F)F)c(Br)c3)ccc2c1C(F)(F)F [Example 107] | 85
37 | FC(F)(F)COc1ccc(NCc2cc3oc(-c4nnn[nH]4)cc3cc2Cl)cc1C(F)(F)F [Example 22] | 328
38 | FC(F)(F)Oc1ccc(NCc2cc3oc(-c4nnn[nH]4)cc3cc2Cl)cc1C(F)(F)F [Example 6] | 264
39 | COc1ccc(NCc2ccc3cc(C(=O)O)oc3c2)cc1C(F)(F)F [Example 117] | 28
40 | FC(F)Oc1ccc(NCc2ccc3c(C(F)(F)F)c(-c4nnn[nH]4)oc3c2)cc1C(F)(F)F [Example 60] | 58
41 | FC(F)(F)Oc1cc(NCc2cc3oc(-c4nnn[nH]4)cc3cc2Cl)ccc1Cl [Example 13] | 39
42 | FC(F)(F)c1ccc(NCc2cc3oc(-c4nnn[nH]4)cc3cc2Cl)cc1Cl [Example 198] | 187
43 | FC(F)Oc1ccc(NCc2cc3cc(-c4nnn[nH]4)oc3cc2Cl)cc1C(F)(F)F [Example 134] | 217
44 | Fc1c(CNc2ccc(OC(F)(F)F)c(Br)c2)ccc2oc(-c3nnn[nH]3)cc12 [Example 140] | 290
45 | O=C(O)c1cc2ccc(CNc3ccc(SC(F)(F)F)c(Cl)c3)cc2o1 [Example 87] | 326
46 | Fc1c(CNc2ccc(OCC(F)(F)F)c(C(F)(F)F)c2)ccc2cc(-c3nnn[nH]3)oc12 [Example 154] | 325
47 | FC1(F)Oc2ccc(NCc3ccc4oc(-c5nnn[nH]5)cc4c3)cc2O1 [Example 67] | 247
48 | CC(Nc1cc(Cl)c(Cl)c(Cl)c1)c1ccc2oc(-c3nnn[nH]3)cc2c1 (stereo not drawn) [Example 73] | 132
49 | FC(F)(F)Oc1cc(NCc2ccc3cc(-c4nn[nH]n4)oc3c2)ccc1Br [Example 48] | 123
50 | Fc1cc2cc(-c3nnn[nH]3)oc2cc1CNc1cc(C(F)(F)F)c(Br)c(C(F)(F)F)c1 [Example 159] | 388
51 | CCc1ccc(NCc2cc3oc(-c4nnn[nH]4)cc3cc2F)cc1Br [Example 181] | 322
52 | FC(F)Oc1ccc(NCc2cc3oc(-c4nnn[nH]4)cc3cc2Br)cc1C(F)(F)F [Example 156] | 356
53 | N#Cc1cc(NCc2ccc3cc(-c4nnn[nH]4)oc3c2Cl)ccc1OC(F)F [Example 202] | 174

Row | SMILES | % change@TL7@10 uM [%]
54 | FC(F)(F)Oc1ccc(NCc2ccc3oc(-c4nnn[nH]4)cc3c2)cc1Cl [Example 65] | 284
55 | CCCc1ccc(NC(C)c2ccc3oc(-c4nnn[nH]4)cc3c2)cc1C(F)(F)F (stereo not drawn) [Example 81] | 74
56 | Cc1cc(NCc2cc3oc(-c4nnn[nH]4)cc3cc2Cl)cc(C(F)(F)F)c1 [Example 213] | 144
57 | Fc1ccc(NCc2ccc3oc(-c4nnn[nH]4)cc3c2)cc1OC(F)(F)F [Example 72] | 176
58 | Cc1nsc2ccc(NCc3ccc4cc(-c5nn[nH]n5)oc4c3)cc12 [Example 209] | 137
59 | O=C(O)c1cc2ccc(CNc3ccc4c(c3)OCCO4)cc2o1 [Example 105] | 105
60 | CC(C)Oc1ccc(NCc2ccc3cc(-c4nnn[nH]4)oc3c2Cl)cc1C(F)(F)F [Example 171] | 291
61 | CC(C)c1ccc(NCc2cc3oc(-c4nnn[nH]4)cc3cc2F)cc1Br [Example 160] | 347
62 | FC(F)(F)c1cc(NCc2ccc3cc(-c4nn[nH]n4)oc3c2)ccc1Br [Example 39] | 164
63 | O=C(O)c1cc2ccc(CNc3cc(Cl)nc(Cl)c3)cc2o1 [Example 119] | 22
64 | Fc1c(CNc2cc(C(F)(F)F)c(Br)c(C(F)(F)F)c2)ccc2cc(-c3nnn[nH]3)oc12 [Example 151] | 308
65 | CCCc1ccc(NCc2ccc3oc(-c4nnn[nH]4)c(C)c3c2)cc1C(F)(F)F [Example 82] | 39
66 | FC(F)(F)Sc1ccc(NCc2ccc3cc(-c4nn[nH]n4)oc3c2)cc1Cl [Example 20] | 340
67 | CCOc1ccc(NCc2cc3oc(-c4nnn[nH]4)cc3cc2Cl)cc1C(F)(F)F [Example 10] | 285
68 | CCCc1ccc(NCc2cc3oc(-c4nnn[nH]4)cc3cc2Cl)cc1Cl [Example 12] | 85
69 | O=C(O)c1cc2ccc(CNc3cc(Cl)c(F)c(C(F)(F)F)c3)cc2o1 [Example 110] | 76
70 | FC(F)(F)c1cc(NCc2cc3cc(-c4nnn[nH]4)oc3cc2Cl)cc(C(F)(F)F)c1Br [Example 137] | 166
71 | O=C(O)c1cc2cc(CNc3cc(Cl)c(Cl)c(Cl)c3)ccc2o1 [Example 120] | 282
72 | O=C(O)c1cc2ccc(CNc3ccc(N4CCOCC4)c(Br)c3)cc2o1 [Example 98] | 158
73 | Cc1cc(NCc2cc3oc(-c4nnn[nH]4)cc3cc2F)cc(C(F)(F)F)c1 [Example 195] | 249
74 | Clc1cc(NCc2ccc3cc(-c4nn[nH]n4)oc3c2)cc(Cl)c1Cl [Example 19] | 394
75 | O=C(O)c1cc2cc(F)c(CNc3ccc(OCC(F)(F)F)c(C(F)(F)F)c3)cc2o1 [Example 231] | 239
76 | CSc1ccc(NCc2ccc3cc(C(=O)O)oc3c2)cc1C(F)(F)F [Example 96] | 185
77 | CCc1ccc(NCc2ccc3oc(-c4nnn[nH]4)cc3c2)cc1C(F)(F)F [Example 78] | 108
78 | O=C(O)c1cc2ccc(CNc3ccc(OC(F)(F)F)c(Br)c3)cc2o1 [Example 90] | 247
